Laboratory results reported in publication PMC10047683, “A Novel Family of Lysosomotropic Tetracyclic Compounds for Treating Leukemia” (Cancers, 2023).

Key:
[1] = system: AML cell lines; assay: Lysosomal mass with Lysotracker probe; type: cell-based; conditions: 10 µM, 24 h
Method: Lysosomal mass was determined using Lysotracker DeepRed (Thermo Fisher, Waltham, MA, USA), and analyzed with cytometry and microscopy, as explained previously. The lysosomal activity assays were performed following the guidance of the study that first introduced the Lysosomal Metriq probe. AML cell lines were lentivirally transduced with the pCW57.1 Lysosomal-METRIQ plasmid (Addgene #135401), and selected with puromycin (2 µg/mL). Cells were treated for 3 consecutive days with 3 µg/mL doxycycline (Sigma Aldrich, St. Louis, MO, USA), incubated with the compounds of interest for 24 h, and analyzed in the flow cytometer. Lysosomal activity was measured as the ratio between red fluorescence (acting as an internal control) and green fluorescence (located in the lysosomes and degraded to different degrees depending on the activity of the lysosomal compartment). For the Galectin 3 puncta assay, AML cell lines were lentivirally transduced with the mAG-Gal3 plasmid (Addgene #62734). Treatments and analysis were performed as described elsewhere. Then, 2 × 10^5 cells per ml were pulsed with dextran-rhodamine (0.25 mg/mL) for 24 h, chased for 2 h, treated with EDK compounds at the indicated concentrations for 48 h, attached to poly-L-lysine (50 μg/mL)-coated chambered coverslips (μ-Slide 8 well, Ibidi), imaged in a Zeiss LSM880 microscope, and analyzed with Fiji software.

[2] = system: HS-5; assay: Pancancer cell line panel viability (nontumor line); type: cell-based; conditions: HS-5 (nontumor); 10 µM; 48 h
Method: (§1) First, 2 × 10^5 (72 h assays in cell lines (Supplementary File S1)), 3 × 10^5 (48 h assays in cell lines) or 7.5 × 10^5 (primary AML, healthy donor buffy coats) cells per mL were cultured in 96-well plates, and all drugs were added at the indicated concentrations. In α-tocopherol experiments, cells were treated with growing concentrations of α-tocopherol and EDK drugs for 48 h. In the NAC and 3MA experiments, treatment was simultaneous with EDK compounds. In glucose deprivation experiments, cells were cultivated with a standard medium (glucose high, 2 g/L), a standard medium without glucose, or a standard medium with galactose (2 g/L) and without glucose. Cell viability was measured via 7-AAD (eBioscience) exclusion and Hoechst33342 (Sigma-Aldrich, St. Louis, MO, USA) positivity staining via flow cytometry, and the cell count was obtained through volume. In the experiments with the primary cells, analyses were performed inside the blast population as detected via blast gates (CD45^low SSC^int). For solid tumor cell lines, viability was analyzed using CellTiter-Glo® Luminescent Cell Viability Assay (Promega).
(§2) AML cell lines and cell cultures
(§3) Cell lines HL-60 (ACC-3), KG-1 (ACC-14), MonoMac-1 (ACC-252), Kasumi-1 […]
(§4) obtained from DSMZ. Cell lines THP-1 (TIB-202TM), MCF-7 (HTB-22™), MDA- […]
(§5) 3216™) and HS-5 (CRL-11882™) were obtained from ATCC. HBL-2 cell line was kindly supplied by Dr. Pérez-Galán (IDIBAPS, Barcelona, Spain). SKM-1 and U937 were kindly provided by Dr. Marcus Buschbeck (IJC, Badalona, Spain). All cell lines were cultured in the conditions indicated by the providers, and were tested for mycoplasma on a monthly basis.
(§6) All drugs were resuspended in H2O (Thermo Fischer Scientific), DMSO (Sigma-Aldrich) or ethanol (VWR) according to manufacturer’s specifications. - tocopherol, 3-methyladenine (3MA), arsenic trioxide (ATO) and N-acetyl-L-cysteine (NAC) were purchased from Sigma Aldrich. Chloroquine diphosphate was purchased from Merck. Etoposide and ionomycin were purchased from […]
(§7) (1 picture or pasted object on this page, not shown here)

[3] = system: HEK-293T; assay: as above; type: cell-based; conditions: HEK-293T (nontumor); 10 µM; 48 h
Method: as §1, §2, §3, §4, §5, §6, §7

[4] = Pharmacokinetic study in mice; type: in vivo, CD-1 mice; conditions: 30 mg/kg orally and subcutaneously
Method: All ADMET studies were performed in Eurofins Discovery Services (CEREP laboratories, Celle-Lévescault France). The pharmacokinetic studies were performed in Draconis Pharma SL (Barcelona, Spain) in CD-1 mice treated with 30 mg/kg EDK87 or EDK88 via SC or OG. Blood was collected by cardiac puncture at 0.5, 1, 2, 4, or 24 h.

[5] = system: MonoMac1; assay: Combination with ATO in AML cell lines, viability and Bliss synergy; type: cell-based; conditions: lower maps (MonoMac1), 48 h
Method: as §1
Synergy was calculated using SynergyFinder 2.0 with the Bliss reference model.

[6] = system: primary AML samples; assay: Cytotoxicity in primary AML samples (flow cytometry, blast gate); type: cell-based, human
Excerpt: Primary AML samples were obtained at diagnosis from patients diagnosed at Hospital Clínic of Barcelona (Spain) and Hospital Germans Trias i Pujol (Badalona, Spain). AML diagnosis, classification, and risk stratification were based on the latest revised WHO criteria (Supplementary Table S1). Clinical characteristics of AML patients are summarized in Supplementary Table S1. Mononuclear cells (MNCs) were isolated with Ficoll density gradient centrifugation (GE Healthcare, Chicago, IL, USA). All patients provided their written informed consent in accordance with the Declaration of Helsinki, and the study was approved by the corresponding ethics committees. Mature blood MNCs were isolated from healthy donors’ buffy coats provided by Banc de Sang i Teixits (BSiT, Barcelona, Spain). Umbilical-cord blood was provided by BSiT, and MNCs were depleted for lineage marker-positive cells using magnetic separation with the Human Lineage Cell Depletion kit (Miltenyi Biotec, North Rhine-Westphalia, Germany) following the manufacturer’s recommendations.
as §1

For `CN1CCC(=C2c3ccccc3-c3c2sc2ccccc32)CC1` [EDK-87], which “lysosomal mass (Lysotracker)” value [1] is on record?
The value was “expansion of the lysosomal mass”.

And the # Live cells refer to control [2]?
The # Live cells refer to control was 71%.

What about the # Live cells refer to control [3] of the same molecule?
The # Live cells refer to control was 79%.

And the “clearance (PK)” value [4]?
The value was “high”.

What about the plasma level [4] of the same molecule?
Its plasma level is “low”.

What about the volume of distribution [4] of the same molecule?
The volume of distribution was “high”.

What about the “Effectivity (%Viability reduction)” value ([5]; EDK compound alone 1 µM) of the same molecule?
The value was 29%.

And the “Effectivity (%Viability reduction)” value ([5]; EDK compound alone 3 µM)?
Its value is 33%.

And the “Effectivity (%Viability reduction)” value ([5]; EDK compound alone 10 µM)?
The value was 61%.

What about the “reduced the numbers of primary leukemic cells” value ([6]; 14 primary AML samples, 72 h, EDK-87 10 and 25 µM, EDK-88 5 and 10 µM assayed) of the same molecule?
The value was 43% ± 8.5.

And the # Live cells refer to control ([6]; AML sample #61, 5 µM, 72 h)?
Its # Live cells refer to control is 112%.

And the # Live cells refer to control ([6]; AML sample #61, 10 µM, 72 h)?
Its # Live cells refer to control is 107%.

What about the # Live cells refer to control ([6]; AML sample #61, 25 µM, 72 h) of the same molecule?
Its # Live cells refer to control is 47%.

What about the # Live cells refer to control ([6]; AML sample #63, 5 µM, 72 h) of the same molecule?
Its # Live cells refer to control is 71%.

What about the # Live cells refer to control ([6]; AML sample #63, 10 µM, 72 h) of the same molecule?
The # Live cells refer to control was 37%.

What about the # Live cells refer to control ([6]; AML sample #63, 25 µM, 72 h) of the same molecule?
Its # Live cells refer to control is 13%.

And the # Live cells refer to control ([6]; AML sample #98, 5 µM, 72 h)?
Its # Live cells refer to control is 59%.

What about the # Live cells refer to control ([6]; AML sample #98, 10 µM, 72 h) of the same molecule?
The # Live cells refer to control was 26%.

What about the # Live cells refer to control ([6]; AML sample #98, 25 µM, 72 h) of the same molecule?
The # Live cells refer to control was 5%.

And the # Live cells refer to control ([6]; AML sample #130, 5 µM, 72 h)?
Its # Live cells refer to control is 97%.

And the # Live cells refer to control ([6]; AML sample #130, 10 µM, 72 h)?
Its # Live cells refer to control is 97%.

What about the # Live cells refer to control ([6]; AML sample #130, 25 µM, 72 h) of the same molecule?
The # Live cells refer to control was 35%.

And the # Live cells refer to control ([6]; AML sample #132, 5 µM, 72 h)?
The # Live cells refer to control was 74%.

What about the # Live cells refer to control ([6]; AML sample #132, 10 µM, 72 h) of the same molecule?
Its # Live cells refer to control is 60%.

And the # Live cells refer to control ([6]; AML sample #133, 5 µM, 72 h)?
Its # Live cells refer to control is 60%.

And the # Live cells refer to control ([6]; AML sample #133, 10 µM, 72 h)?
The # Live cells refer to control was 19%.

And the # Live cells refer to control ([6]; AML sample #134, 5 µM, 72 h)?
The # Live cells refer to control was 97%.

And the # Live cells refer to control ([6]; AML sample #134, 10 µM, 72 h)?
The # Live cells refer to control was 89%.

And the # Live cells refer to control ([6]; AML sample #135, 5 µM, 72 h)?
The # Live cells refer to control was 94%.

What about the # Live cells refer to control ([6]; AML sample #135, 10 µM, 72 h) of the same molecule?
Its # Live cells refer to control is 80%.

What about the # Live cells refer to control ([6]; AML sample #135, 25 µM, 72 h) of the same molecule?
The # Live cells refer to control was 14%.

And the # Live cells refer to control ([6]; AML sample #136, 5 µM, 72 h)?
Its # Live cells refer to control is 97%.

And the # Live cells refer to control ([6]; AML sample #136, 10 µM, 72 h)?
The # Live cells refer to control was 51%.

What about the # Live cells refer to control ([6]; AML sample #136, 25 µM, 72 h) of the same molecule?
Its # Live cells refer to control is 2%.

And the # Live cells refer to control ([6]; AML sample #141, 5 µM, 72 h)?
The # Live cells refer to control was 77%.

What about the # Live cells refer to control ([6]; AML sample #141, 10 µM, 72 h) of the same molecule?
Its # Live cells refer to control is 52%.

What about the # Live cells refer to control ([6]; AML sample #147, 5 µM, 72 h) of the same molecule?
Its # Live cells refer to control is 17%.

And the # Live cells refer to control ([6]; AML sample #148, 5 µM, 72 h)?
The # Live cells refer to control was 47%.

And the # Live cells refer to control ([6]; AML sample #148, 10 µM, 72 h)?
Its # Live cells refer to control is 5%.

And the # Live cells refer to control ([6]; AML sample #152, 5 µM, 72 h)?
The # Live cells refer to control was 83%.

And the # Live cells refer to control ([6]; AML sample #152, 10 µM, 72 h)?
The # Live cells refer to control was 56%.

What about the # Live cells refer to control ([6]; AML sample #153, 5 µM, 72 h) of the same molecule?
The # Live cells refer to control was 78%.

What about the # Live cells refer to control ([6]; AML sample #153, 10 µM, 72 h) of the same molecule?
Its # Live cells refer to control is 65%.

And the “therapeutic window (viability)” value ([6]; primary AML vs healthy-donor blood cells)?
Its value is 2.4.
